Measurements taken from patent publication US5780590A, “Antithrombotic azacycloalkylalkanoyl peptides and pseudopeptides” (Rhone-Poulenc Rorer Pharmaceuticals Inc., priority 1996, dated 1998).

What was measured:
[1] = test system: ADP-induced platelet aggregation in platelet rich plasma; assay: Inhibition of ADP-Induced ex-vivo Platelet Aggregation; type: in vivo, mongrel dogs; details: dog, dose 5 mg/kg oral
From the text: The Platelet Aggregation Assay is based on that described in Blood 66 (4), 946-952 (1985). The Fibrinogen-Binding Assay is essentially that of Ruggeri, Z. M., et al., Proc. Natl. Acad. Sci. USA 83, 5708-5712 (1986) and Plow, E. F., et al., Proc. Natl. Acad. Sci., USA 82, 8057-8061 (1985). The Inhibition of ADP-Induced ex-vivo Platelet Aggregation assay is based on that of Zucker, "Platelet Aggregation Measured by the Photoelectric Method", Methods in Enzymology 169, 117-133 (1989).
Inhibition of ADP-Induced ex-vivo Platelet Aggregation
Control blood samples are obtained 5-10 minutes prior to administration of a test compound in mongrel dogs weighing from 10 to 20 Kg. The compound is administered intragasticly, via aqueous gavage, or orally, via gelatin capsule. […]
The blood samples are centrifuged at 1000 rpm for 10 minutes to obtain platelet rich plasma (PRP). […] Platelet count in the PRP is determined by using a Coulter Counter (Coulter Electronics, Hialeah, Fla.). […] Platelet aggregation is monitored spectrophotometrically utilizing a light transmission aggregometer (Bio/Data Platelet Aggregation Profiler, Model PAP-4, Bio/Data Corp., Horsham, Pa.). For the testing of a compound, the rate of change (slope) of light transmittance and the maximum light transmittance (maximum aggregation) is recorded in duplicate. […]

[2] = Moisture sorption isotherms; type: physicochemical; details: 25° C. (FIG. 9)
Description: Moisture Sorption Isotherms of hygroscopic and non-hygroscopic crystalline forms of N-[N-[N-(4-piperdin-4-yl)butanoyl)-N-ethylglycyl]-(L)-aspartyl]-(L)-β-cyclohexylalanine amide are obtained on a VTI MB300G moisture balance. The experiments are conducted either by subjecting approximately 15 mg of the subject crystalline form to increasing and decreasing steps of % RH and following the weight gain (at each equilibrium step) as a function of % RH (FIG. 9) or by holding the subject crystalline form at constant humidity and following the weight gain as a function of time.

[3] = Isothermal microcalorimetry of solid state form conversion; type: physicochemical; details: 60° C. (FIG. 8)
Description: Isothermal microcalorimetry experiments on hygroscopic and non-hygroscopic crystalline forms of N-[N-[N-(4-piperdin-4-yl)butanoyl)-N-ethylglycyl]-(L)-aspartyl]-(L)-β-cyclohexylalanine amide are performed on a Thermometric® Thermal Activity Monitor (TAM). Solid state conversions of the different crystalline forms are studied by exposing the forms to different humidities or solvent vapors at different temperatures. The saturated salt solutions used to obtain different humidities were: KCl (80% RH), NaCl (75% RH), and NaBr (65% RH). Approximately 100 mg quantities of the forms are weighed into a TAM glass ampule and a microhygrostate containing a saturated salt solution (with excess solid) or an organic solvent is placed inside the ampule. The ampule is sealed, equilibrated to the temperature of the experiment, and lowered into the measuring position in the TAM. An identical system containing washed sea sand, in place of the form subject to testing, is placed on the reference side. Output power ([…]) is measured as a function of time (FIGS. 6-8).

Structure (SMILES) | % Inhibition of ex-vivo Platelet Aggregation After Oral Administration, 24 h [1] [%] | % weight gain vs. % RH [2] | conversion to non-hygroscopic form at 100% RH [3]
CCN(CC(=O)N[C@@H](CC(=O)O)C(=O)N[C@@H](CC1CCCCC1)C(N)=O)C(=O)CCCC1CCNCC1 [Example 15] | 5 | – | –
CCN(CC(=O)N[C@@H](CC(=O)O)C(=O)N[C@@H](CC1CCCCC1)C(N)=O)C(=O)CCCC1CCNCC1 [hygroscopic form] | – | picks up more water than the non-hygroscopic form as the RH increases | without the liquification
